Experimental data taken from PubChem BioAssay AID2060486 (Molecular Pharmacology Branch, DTP, NCI, 2025).

Test system: IGROV1 complex spheroids (HUVEC, MSC), viability % test/control
Experiment: Anticancer human tumor IGROV1 cell line growth inhibition [GQUAD];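 further: spheroids exposed to compounds for 7 days before readout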;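 on viability, T/C: 100% = DMSO vehicle control viability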
Details: for IC50: curve of first compound; for viability, T/C: stronger effect = lower value; active means viability on the fitted dose curve at most 10% of control; inactive means the rest
Method in brief: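 Multi-cell-type spheroids of tumor cells with HUVEC and mesenchymal stem cells, treated with drug combinations. Concentrations descend in half-log steps from near clinical Cmax, or from 10 microM where Cmax is unknown; viability read-out.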

[1] = second compound 0.0316 µM, first compound 0.0316 µM
[2] = second compound 0.0316 µM, first compound 0.1 µM
[3] = second compound 0.0316 µM, first compound 0.316 µM
[4] = second compound 0.0316 µM, first compound 1 µM
[5] = second compound 0.0316 µM, first compound 3.16 µM
[6] = second compound 0.0316 µM, first compound 10 µM
[7] = second compound 0.1 µM, first compound 0.0316 µM
[8] = second compound 0.1 µM, first compound 0.1 µM
[9] = second compound 0.1 µM, first compound 0.316 µM
[10] = second compound 0.1 µM, first compound 1 µM
[11] = second compound 0.1 µM, first compound 3.16 µM
[12] = second compound 0.1 µM, first compound 10 µM
[13] = second compound 0.316 µM, first compound 0.0316 µM
[14] = second compound 0.316 µM, first compound 0.1 µM
[15] = second compound 0.316 µM, first compound 0.316 µM
[16] = second compound 0.316 µM, first compound 1 µM
[17] = second compound 0.316 µM, first compound 3.16 µM
[18] = second compound 0.316 µM, first compound 10 µM
[19] = second compound 1 µM, first compound 0.0316 µM
[20] = second compound 1 µM, first compound 0.1 µM
[21] = second compound 1 µM, first compound 0.316 µM
[22] = second compound 1 µM, first compound 1 µM
[23] = second compound 1 µM, first compound 3.16 µM
[24] = second compound 1 µM, first compound 10 µM
[25] = second compound 3.16 µM, first compound 0.0316 µM
[26] = second compound 3.16 µM, first compound 0.1 µM
[27] = second compound 3.16 µM, first compound 0.316 µM
[28] = second compound 3.16 µM, first compound 1 µM
[29] = second compound 3.16 µM, first compound 3.16 µM
[30] = second compound 3.16 µM, first compound 10 µM
[31] = second compound 10 µM, first compound 0.0316 µM
[32] = second compound 10 µM, first compound 0.1 µM
[33] = second compound 10 µM, first compound 0.316 µM
[34] = second compound 10 µM, first compound 1 µM
[35] = second compound 10 µM, first compound 3.16 µM
[36] = second compound 10 µM, first compound 10 µM

CC1COCCN1c1cc(C2(O)CC3CCC(C2)O3)c2cnn(-c3ccn[nH]3)c2n1 (stereo not drawn) + Cc1cnc(CNC(=O)c2c(=O)c3ccc(N4CCCN(C)CC4)nc3n3c2sc2ccccc23)cn1
active: viability, T/C [2] 8.52% | viability, T/C [3] 5.86% | viability, T/C [4] 3.91% | viability, T/C [5] 3.41% | viability, T/C [6] 2.21% | viability, T/C [8] 7.17% | viability, T/C [9] 5.58% | viability, T/C [10] 4.56% | viability, T/C [11] 3.63% | viability, T/C [12] 2.02% | viability, T/C [13] 8.26% | viability, T/C [14] 6.06% | viability, T/C [15] 5.61% | viability, T/C [16] 4.38% | viability, T/C [17] 2.92% | viability, T/C [18] 2.02% | viability, T/C [19] 5.97% | viability, T/C [20] 6.1% | viability, T/C [21] 5.48% | viability, T/C [22] 3.78% | viability, T/C [23] 3.09% | viability, T/C [24] 1.97% | viability, T/C [25] 5.79% | viability, T/C [26] 6.38% | viability, T/C [27] 5% | viability, T/C [28] 2.96% | viability, T/C [29] 2.76% | viability, T/C [30] 1.84% | viability, T/C [31] 5.85% | viability, T/C [32] 5.61% | viability, T/C [33] 4.3% | viability, T/C [34] 4.69% | viability, T/C [35] 3.15% | viability, T/C [36] 1.81%
inactive: viability, T/C [1] 13.8% | viability, T/C [7] 10.6%
< 31.6 nM: IC50 (second compound 0.0316 µM) | IC50 (second compound 0.1 µM) | IC50 (second compound 0.316 µM) | IC50 (second compound 1 µM) | IC50 (second compound 3.16 µM) | IC50 (second compound 10 µM)

COc1ccc([C@@H](O)c2cc(-c3ncnc4cc(N5CCOCC5)ccc34)c(F)cc2Cl)nn1 + Cc1cnc(CNC(=O)c2c(=O)c3ccc(N4CCCN(C)CC4)nc3n3c2sc2ccccc23)cn1
< 31.6 nM: IC50 (second compound 0.1 µM) | IC50 (second compound 0.316 µM) | IC50 (second compound 1 µM) | IC50 (second compound 3.16 µM) | IC50 (second compound 10 µM)
inactive: viability, T/C [1] 62.4% | viability, T/C [2] 64.7% | viability, T/C [3] 40.7% | viability, T/C [4] 11.1% | viability, T/C [7] 30.9% | viability, T/C [8] 34.5% | viability, T/C [9] 18.7% | viability, T/C [10] 7.37% | viability, T/C [13] 25.7% | viability, T/C [14] 25.2% | viability, T/C [15] 14.1% | viability, T/C [19] 19.7% | viability, T/C [20] 17.8% | viability, T/C [21] 16.1% | viability, T/C [25] 12% | viability, T/C [31] 9.31%
197 nM: IC50 (second compound 0.0316 µM)
active: viability, T/C [5] 5.18% | viability, T/C [6] 5.46% | viability, T/C [11] 4.79% | viability, T/C [12] 3.15% | viability, T/C [16] 6.16% | viability, T/C [17] 4.16% | viability, T/C [18] 3.4% | viability, T/C [22] 6.86% | viability, T/C [23] 4.58% | viability, T/C [24] 2.36% | viability, T/C [26] 9.89% | viability, T/C [27] 8.1% | viability, T/C [28] 4.31% | viability, T/C [29] 3.47% | viability, T/C [30] 1.18% | viability, T/C [32] 9.19% | viability, T/C [33] 9.26% | viability, T/C [34] 4.56% | viability, T/C [35] 2.94% | viability, T/C [36] 1.32%

Cc1cccc(N(C)C(=O)C2C(O)CCN2c2nc(C)cc(C(F)(F)F)c2C#N)c1 (stereo not drawn) + Cc1cnc(CNC(=O)c2c(=O)c3ccc(N4CCCN(C)CC4)nc3n3c2sc2ccccc23)cn1
inactive: viability, T/C [1] 66.2% | viability, T/C [2] 68% | viability, T/C [3] 65.6% | viability, T/C [4] 42% | viability, T/C [5] 76.5% | viability, T/C [6] 63% | viability, T/C [7] 45.2% | viability, T/C [8] 38.2% | viability, T/C [9] 38.2% | viability, T/C [10] 31.6% | viability, T/C [11] 39.6% | viability, T/C [12] 34.5% | viability, T/C [13] 24.8% | viability, T/C [14] 23.1% | viability, T/C [15] 20.6% | viability, T/C [16] 26.8% | viability, T/C [17] 29.3% | viability, T/C [18] 17.3% | viability, T/C [19] 12.8% | viability, T/C [20] 9.76% | viability, T/C [21] 20.4% | viability, T/C [22] 14.9% | viability, T/C [23] 21.1% | viability, T/C [24] 17.1% | viability, T/C [25] 11.1% | viability, T/C [26] 11.2% | viability, T/C [27] 13.9% | viability, T/C [28] 12.8% | viability, T/C [29] 13.4% | viability, T/C [30] 10.1% | viability, T/C [31] 8.57% | viability, T/C [32] 9.75% | viability, T/C [33] 7.75% | viability, T/C [34] 10.5% | viability, T/C [35] 14.8% | viability, T/C [36] 11.7%
> 10000 nM: IC50 (second compound 0.0316 µM)
< 31.6 nM: IC50 (second compound 0.1 µM) | IC50 (second compound 0.316 µM) | IC50 (second compound 1 µM) | IC50 (second compound 3.16 µM) | IC50 (second compound 10 µM)

O=C(c1cc(Cc2n[nH]c(=O)c3ccccc23)ccc1F)N1CCN(C(=O)C2CC2)CC1 + Cc1cnc(CNC(=O)c2c(=O)c3ccc(N4CCCN(C)CC4)nc3n3c2sc2ccccc23)cn1
active: viability, T/C [31] 8.62% | viability, T/C [32] 11.4% | viability, T/C [33] 9.01% | viability, T/C [34] 8.13% | viability, T/C [35] 9.75% | viability, T/C [36] 9.07%
1610 nM: IC50 (second compound 0.0316 µM)
< 31.6 nM: IC50 (second compound 0.1 µM) | IC50 (second compound 0.316 µM) | IC50 (second compound 1 µM) | IC50 (second compound 3.16 µM) | IC50 (second compound 10 µM)
inactive: viability, T/C [1] 58.6% | viability, T/C [2] 73% | viability, T/C [3] 53.6% | viability, T/C [4] 55.8% | viability, T/C [5] 43.5% | viability, T/C [6] 20.8% | viability, T/C [7] 42.1% | viability, T/C [8] 39.9% | viability, T/C [9] 34% | viability, T/C [10] 27.9% | viability, T/C [11] 24.2% | viability, T/C [12] 17.8% | viability, T/C [13] 22.4% | viability, T/C [14] 27.7% | viability, T/C [15] 24% | viability, T/C [16] 23.5% | viability, T/C [17] 16.9% | viability, T/C [18] 18.1% | viability, T/C [19] 14.4% | viability, T/C [20] 17.3% | viability, T/C [21] 18.9% | viability, T/C [22] 16.9% | viability, T/C [23] 16% | viability, T/C [24] 12.9% | viability, T/C [25] 9.91% | viability, T/C [26] 10.6% | viability, T/C [27] 10.1% | viability, T/C [28] 10.6% | viability, T/C [29] 11.1% | viability, T/C [30] 10.5%
